Like-named read-outs stand apart in the source and are kept apart here.
Key:
MRSA = assay: Planktonic antibacterial broth microdilution assay; details: Staphylococcus aureus
Bacillus subtilis = assay: Planktonic antibacterial broth microdilution assay; assay type: cell-based; details: 24 hours continuous drug exposure
Bacillus subtilis FtsZ [1] = biological target: T1, Bacillus subtilis FtsZ (Bacillus subtilis, UniProt P17865); assay: 90°-angle light scattering assay of FtsZ polymerization; assay type: biochemical; details: compound 40 μM; for Maximal Light Scattering: readout of extent of polymerization, no compound: 3.40; for Time to Reach Half-Maximal Light Scattering: readout of rate of polymerization, no compound: 91.6
T1 sequence (P17865 whole entry): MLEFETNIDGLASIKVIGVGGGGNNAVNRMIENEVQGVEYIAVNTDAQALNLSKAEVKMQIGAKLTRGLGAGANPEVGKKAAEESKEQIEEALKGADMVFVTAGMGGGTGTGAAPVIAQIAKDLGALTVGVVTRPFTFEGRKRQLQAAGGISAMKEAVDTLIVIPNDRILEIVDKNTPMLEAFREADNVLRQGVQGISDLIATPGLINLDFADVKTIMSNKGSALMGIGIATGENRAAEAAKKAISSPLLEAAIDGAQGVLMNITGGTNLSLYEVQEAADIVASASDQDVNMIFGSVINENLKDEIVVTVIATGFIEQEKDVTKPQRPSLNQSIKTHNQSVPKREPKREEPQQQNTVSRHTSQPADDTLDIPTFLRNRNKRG
Protocol: B[c]P inhibition of FtsZ polymerization can be tested using a 90°-angle light scattering assay for monitoring drug impact on FtsZ polymerization. This assay is premised on the increased light scattering properties of polymeric FtsZ relative to the monomeric form of the protein. To this end, the light scattering at 600 nm of 5 μM FtsZ is continuously monitored under polymerization conditions in the absence or presence of a B[c]P compound at concentrations ranging from 40 to 80 μM.
Polymerization is initiated by addition of 0.5 mM GTP. The rate and extent of FtsZ polymerization can be quantified by analyzing the light scattering profiles to derive maximal light scattering values (which provide a readout of the extent of polymerization) as well as the times required to reach half-maximal light scattering values (which provide a readout of the rate of polymerization).

Enterococcus faecalis = assay: Planktonic antibacterial broth microdilution assay; assay type: cell-based; details: 24 hours continuous drug exposure
Staphylococcus aureus = assay: Planktonic antibacterial broth microdilution assay; assay type: cell-based; details: 24 hours continuous drug exposure
[2] = system: Mycobacterium tuberculosis; assay: Planktonic antibacterial broth microdilution assay; assay type: cell-based; details: 24 hours continuous drug exposure
Bacillus subtilis FtsZ [3] = biological target: T1, Bacillus subtilis FtsZ; assay: Fluorescence-based competition binding assay (displacement of BODIPY-GTPγS from FtsZ); details: FIG. 8; reduction reflects binding to FtsZ and release of BODIPY-GTPγS
Text: B[c]P binding to FtsZ can be tested using a fluorescence-based competition binding assay using purified FtsZ and a commercially available GTPγS analog where the nucleotide is covalently conjugated via its sulfur atom to the fluorescent dye BODIPY (DIPYrromethene BOron difluoride). Upon binding to FtsZ, BODIPY-GTPγS undergoes a dramatic increase in fluorescence emission intensity (I) at 510 nm. This binding-induced change in BODIPY-GTPγS fluorescence provides the dissociation constant (Kd-GTP) of the nucleotide for the protein through analysis of fluorescence titration profiles with the following formalism, which is predicated on a one-to-one binding stoichiometry:
[formula] I0 and I are the fluorescence emission intensities of BODIPY-GTPγS in the absence and presence of a given FtsZ concentration, respectively, I∞ is the fluorescence emission intensity of BODIPY-GTPγS in the presence of an infinite FtsZ concentration, and [GTP]tot and [FtsZ]tot are the total concentrations of BODIPY-GTPγS and FtsZ, respectively. […]
I0 and I are the fluorescence emission intensities of the FtsZ-BODIPY-GTPγS complex in the absence and presence of a given compound concentration, respectively, I∞ is the fluorescence emission intensity of the FtsZ-BODIPY-GTPγS complex in the presence of infinite compound concentration, [Compd]tot is the total compound concentration, and p is the Hill slope. […]

Structure (SMILES) | MIC (MRSA; read-out: MIC vs. MRSA) [µg/mL] | further results
COc1cc2c(ccc3c4ccc(OC)c(OC)c4c[n+](C)c23)c(C2=CCCCC2)c1OC [Example 9] | < 16 | 
COc1cc2ccc3c4ccc(OC)c(OC)c4c[n+](C)c3c2cc1OC [Comparative Example 2, reference compound] | 64 | 
COc1cc2c(ccc3c4ccc(OC)c(OC)c4c[n+](C)c23)c(-c2ccccc2)c1OC [Example 12] | < 16 | 
COc1cc2c(ccc3c4ccc5c(c4c[n+](C)c23)OCO5)c(-c2ccc(-c3ccccc3)cc2)c1OC [Example 3, 8-Biphenyl-4-yl-9,10-dimethoxy-12-methyl-1,3-dioxa-12-azoniacyclopenta[a]chrysene chloride] | < 16 | MIC (MRSA; 24 h, read-out: MRSA MIC): 8 µg/mL; MIC (Bacillus subtilis): 2 µg/mL; Maximal Light Scattering (Bacillus subtilis FtsZ [1]): 1.76 a.u.; Time to Reach Half-Maximal Light Scattering (Bacillus subtilis FtsZ [1]): 600.5 s; MIC (Enterococcus faecalis): 16 µg/mL; MIC (Staphylococcus aureus): 2 µg/mL; MIC [2]: 4 µg/mL; fluorescence of FtsZ-bound BODIPY-GTPγS upon addition of compound (Bacillus subtilis FtsZ [3]): decreases
COc1cc2c(ccc3c4ccc(OC)c(OC)c4c[n+](C)c23)c(C2CCCCC2)c1OC [Example 10] | < 16 | 
COc1cc2c(ccc3c4ccc(OC)c(OC)c4c[n+](C)c23)c(C2CC2)c1OC [Example 11] | < 16 | 
COc1cc2c(-c3ccccc3)cc3c4ccc(OC)c(OC)c4c[n+](C)c3c2cc1OC [Example 14] | < 16 | 
COc1cc2c(ccc3c4ccc(OC)c(OC(C)C)c4c[n+](C)c23)c(-c2ccccc2)c1OC [Example 8] | < 16 | 
COc1cc2c(ccc3c4ccc(OC)c(OC)c4c[n+](C)c23)c(-c2ccc(-c3ccccc3)cc2)c1OC [Example 7] | < 16 | 
COc1ccc2c(c1OC)CN(C)c1c-2ccc2c(-c3ccc(-c4ccccc4)cc3)c(OC)c(OC)cc12 [Example 20] | < 16 | 
COc1cc2ccc3c4ccc5c(c4c[n+](C)c3c2cc1OC)OCO5 [Comparative Example 1, reference compound] | 32 | 
COc1ccc2c(c1OC)CN(C)c1c-2ccc2c(C3CC3)c(OC)c(OC)cc12 [Example 21] | < 16 | 
COc1ccc(-c2c(OC)c(OC)cc3c2ccc2c4ccc5c(c4c[n+](C)c32)OCO5)cc1 [Example 6] | < 16 | 
COc1cc2c(-c3ccc(-c4ccccc4)cc3)cc3c4ccc(OC)c(OC)c4c[n+](C)c3c2cc1OC [Example 23] | < 16 | 
COc1cc(-c2c(OC)c(OC)cc3c2ccc2c4ccc(OC)c(OC)c4c[n+](C)c32)cc(OC)c1OC [Example 15] | < 16 | 
COc1cc2c(ccc3c4ccc(OC)c(OC)c4c[n+](C)c23)c(-c2cccnc2)c1OC [Example 22] | < 16 | 
COc1cc2c(ccc3c4ccc(OC)c(OC)c4c[n+](C)c23)c(-c2ccc(N(C)C)cc2)c1OC [Example 16] | < 16 | 
COc1cc2c(-c3ccc(-c4ccccc4)cc3)cc3c4ccc5c(c4c[n+](C)c3c2cc1OC)OCO5 [Example 13] | < 16 | 
C[n+]1cc2c3c(ccc2c2ccc4cc5c(cc4c21)OCO5)OCO3 [Sanguinarine] |  | MIC (MRSA; 24 h, read-out: MRSA MIC): 16 µg/mL; MIC (Bacillus subtilis): 4 µg/mL; MIC (Enterococcus faecalis): 32 µg/mL; MIC (Staphylococcus aureus): 8 µg/mL; MIC [2]: 8 µg/mL
COc1ccc2c(c1OC)C(N)N(C)c1c-2ccc2c(-c3ccc(-c4ccccc4)cc3)c(OC)c(OC)cc12 (stereo not drawn) [Example 24] | < 16 | 
COc1ccc2c(c[n+](C)c3c4cc5c(cc4ccc23)OCO5)c1OC [Chelerythrine] |  | MIC (MRSA; 24 h, read-out: MRSA MIC): 16 µg/mL; MIC (Bacillus subtilis): 4 µg/mL; Maximal Light Scattering (Bacillus subtilis FtsZ [1]): 2.83 a.u.; Time to Reach Half-Maximal Light Scattering (Bacillus subtilis FtsZ [1]): 205.3 s; MIC (Enterococcus faecalis): 32 µg/mL; MIC (Staphylococcus aureus): 8 µg/mL; MIC [2]: 8 µg/mL
COc1cc2c(ccc3c4ccc(OC)c(OC)c4c[n+](C)c23)c(-c2ccc(S(=O)(=O)N(C)C)cc2)c1OC [Example 18] | < 16 | 
COc1cc2c(ccc3c4ccc(OC)c(OC)c4c[n+](C)c23)c(-c2ccoc2)c1OC [Example 17] | < 16 | 
COc1cc2c(ccc3c4ccc(OC)c(OC)c4c[n+](C)c23)c(-c2ccc(CCN3CCOCC3)cc2)c1OC [Example 19] | < 16 | 
COc1cc2c(ccc3c4ccc5c(c4c[n+](C)c23)OCO5)c(Cc2ccccc2)c1OC [Example 5] | < 16 | 
COc1ccc2c(c1OC)C(OC)N(C)c1c-2ccc2c(-c3ccc(-c4ccccc4)cc3)c(OC)c(OC)cc12 (stereo not drawn) [Example 25] | < 16 | 
COc1cc2c(ccc3c4ccc5c(c4c[n+](C)c23)OCO5)c(-c2ccccc2)c1OC [Example 4] | < 16 | 

Source: US8741917B2, “Benzo [C] phenanthridines as antimicrobial agents” (Rutgers, The State University of New Jersey, priority 2009, dated 2014)
